Where a SMILES comes first, the peptide text is derived from it. Bridges are numbered along the chain shown (N, C = ends). Roman numbers before positions name the chains, in order. [ ]: non-standard residue; d: D form. Tle = CC(C)(C)[C@H](N)C(=O)O; dDab = NCC[C@@H](N)C(=O)O; Nle = CCCC[C@H](N)C(=O)O; Dab = NCC[C@H](N)C(=O)O; dAze = O=C(O)[C@H]1CCN1; Dap = NC[C@H](N)C(=O)O
Key:
Assay type in all cases: cell-based
[1] = system: Klebsiella pneumoniae SSI #3010; conditions: SSI #3010
Procedure, shortened: (§1)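 MIC in μg/mL read as absence of visible growth after 18-20 h incubation at 35° C. Bacteria at about 10^6 CFU/mL in MH-II (cation-adjusted) broth plus 0.002% P-80 were exposed to two-fold peptide dilutions per standard CLSI microdilution.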

[2] = system: Acinetobacter baumannii DSM 30008; conditions: DSM 30008
Procedure, shortened: as §1

Escherichia coli 926415 = conditions: 926415
[3] = system: Escherichia coli ATCC 25922; conditions: ATCC 25922
Procedure, shortened: as §1

[4] = system: Acinetobacter baumannii 872842; conditions: 872842
[5] = system: Klebsiella pneumoniae 968733; conditions: 968733
[6] = system: Pseudomonas aeruginosa ATCC 27853; conditions: ATCC 27853
Procedure, shortened: as §1

[7] = system: human red blood cells (hRBC); test: Hemolysis of human red blood cells; conditions: red cells of human, 1 h, 100
Procedure, shortened: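 Fresh human red blood cells are washed in PBS, then shaken with peptide (100 μg/mL) at 37° C. for 1 h, final erythrocyte density about 0.9×10^9 cells/mL. After centrifugation, diluted supernatants are read at 540 nm against buffer (0%) and Triton X-100 (100%) lysis controls.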

`CC(C)C[C@@H]1NC(=O)[C@@H](Cc2ccccc2)NC(=O)[C@H](CCN)NC(=O)[C@@H](NC(=O)[C@H](CCN)NC(=O)[C@@H](NC(=O)[C@H](CCN)NC(=O)CC[C@@H]2NC(=O)[C@H](CCN)NC(=O)[C@H](Cc3ccc(O)cc3)NC(=O)[C@H]([C@@H](C)O)NC(=O)[C@H](C(C)C)NC(=O)[C@@H]3CCCN3C(=O)[C@H]3CCN3C(=O)[C@H](CO)NC(=O)[C@H](C)NC(=O)[C@H](C(C)(C)C)NC(=O)[C@H](CCN)NC(=O)[C@H](Cc3c[nH]c4ccccc34)NC(=O)[C@H](CCN)NC(=O)[C@@H](CCN)NC2=O)[C@@H](C)O)CCNC(=O)[C@H]([C@@H](C)O)NC(=O)[C@H](CCN)NC(=O)[C@H](CCN)NC1=O` [Ex. 80] (I: cyclo(W[Dab][Tle]AS[dAze]PVTY[Dab]E[dDab][Dab]) / II: [Dab]T[Dab][Dab][Dab][dF]L[Dab][Dab]T; amide I:12-II:N; lactam II:4-II:C) was tested, and the “Klebsiella pneumoniae SSI #3010 MIC” value [1] was 0.25 µg/mL, the “Acinetobacter baumannii DSM 30008 MIC” value [2] was 0.5 µg/mL and the “Escherichia coli 926415 MIC” value (Escherichia coli 926415) was 0.25 µg/mL. For the same molecule, the “Escherichia coli ATCC 25922 MIC” value [3] was 0.25 µg/mL, the “Acinetobacter baumannii 872842 MIC” value [4] was 0.5 µg/mL and the “Klebsiella pneumoniae 968733 MIC” value [5] was 1 µg/mL. For the same molecule, the “Pseudomonas aeruginosa ATCC 27853 MIC” value [6] was 0.25 µg/mL and the “Hemolysis at 100 μg/mL” value [7] was less than 1%.

For `CCCC[C@@H]1NC(=O)[C@@H]2CCCN2C(=O)[C@H]2CCCN2C(=O)[C@H](CO)NC(=O)[C@H](C)NC(=O)[C@H](C(C)(C)C)NC(=O)[C@H](CCN)NC(=O)[C@H](Cc2c[nH]c3ccccc23)NC(=O)[C@H](CCN)NC(=O)[C@@H](CCN)NC(=O)[C@H](CCC(=O)N[C@@H](CCN)C(=O)N[C@@H](C(=O)N[C@@H](CCN)C(=O)N[C@H]2CCNC(=O)[C@H]([C@@H](C)O)NC(=O)[C@H](CCN)NC(=O)[C@H](CCN)NC(=O)[C@H](CC(C)C)NC(=O)[C@@H](Cc3ccccc3)NC(=O)[C@H](CCN)NC2=O)[C@H](C)O)NC(=O)[C@H](CCN)NC(=O)[C@H](Cc2ccc(O)cc2)NC(=O)[C@H](CO)NC1=O` [Ex. 81] (I: cyclo(W[Dab][Tle]AS[dP]P[Nle]SY[Dab]E[dDab][Dab]) / II: [Dab][dT][Dab][Dab][Dab][dF]L[Dab][Dab]T; amide I:12-II:N; lactam II:4-II:C), the “Klebsiella pneumoniae SSI #3010 MIC” value [1] was 1 µg/mL, the “Acinetobacter baumannii DSM 30008 MIC” value [2] was 1 µg/mL and the “Escherichia coli 926415 MIC” value (Escherichia coli 926415) was 0.5 µg/mL. The “Escherichia coli ATCC 25922 MIC” value [3] was 0.5 µg/mL, the “Acinetobacter baumannii 872842 MIC” value [4] was 2 µg/mL and the “Klebsiella pneumoniae 968733 MIC” value [5] was 2 µg/mL. For the same molecule, the “Pseudomonas aeruginosa ATCC 27853 MIC” value [6] was 0.5 µg/mL and the “Hemolysis at 100 μg/mL” value [7] was 1%.

In the case of `CC(C)C[C@@H]1NC(=O)[C@@H](CC(C)C)NC(=O)[C@H](CCN)NC(=O)[C@@H](NC(=O)[C@H](CCN)NC(=O)[C@@H](NC(=O)[C@H](CCN)NC(=O)CC[C@@H]2NC(=O)[C@H](CCN)NC(=O)[C@H](Cc3ccc(O)cc3)NC(=O)[C@H]([C@@H](C)O)NC(=O)[C@H](C(C)C)NC(=O)[C@@H]3CCCN3C(=O)[C@H]3CCN3C(=O)[C@H](CO)NC(=O)[C@H](C)NC(=O)[C@H](C(C)(C)C)NC(=O)[C@H](CCN)NC(=O)[C@H](Cc3c[nH]c4ccccc34)NC(=O)[C@H](CCN)NC(=O)[C@@H](CCN)NC2=O)[C@@H](C)O)CCNC(=O)[C@H]([C@@H](C)O)NC(=O)[C@H](CCN)NC(=O)[C@H](CCN)NC1=O` [Ex. 82] (I: cyclo(AS[dAze]PVTY[Dab]E[dDab][Dab]W[Dab][Tle]) / II: [Dab]T[Dab][Dab][Dab][dL]L[Dab][Dab]T; amide I:9-II:N; lactam II:4-II:C), the “Klebsiella pneumoniae SSI #3010 MIC” value [1] is reported as 0.5 µg/mL, the “Acinetobacter baumannii DSM 30008 MIC” value [2] is reported as 1 µg/mL and the “Escherichia coli 926415 MIC” value (Escherichia coli 926415) is reported as 0.5 µg/mL. For the same molecule, the “Escherichia coli ATCC 25922 MIC” value [3] was 0.5 µg/mL, the “Acinetobacter baumannii 872842 MIC” value [4] was 0.5 µg/mL and the “Klebsiella pneumoniae 968733 MIC” value [5] was 0.5 µg/mL. For the same molecule, the “Pseudomonas aeruginosa ATCC 27853 MIC” value [6] was 0.5 µg/mL and the “Hemolysis at 100 μg/mL” value [7] was less than 1%.

In the case of `CCCC[C@@H]1NC(=O)[C@@H]2CCCN2C(=O)[C@H]2CCCN2C(=O)[C@H](CO)NC(=O)[C@H](CO)NC(=O)[C@H](C(C)(C)C)NC(=O)[C@H](CCN)NC(=O)[C@H](Cc2c[nH]c3ccccc23)NC(=O)[C@H](CCN)NC(=O)[C@@H](CCN)NC(=O)[C@H](CCC(=O)N[C@@H](CCN)C(=O)N[C@H](C(=O)N[C@@H](CCN)C(=O)N[C@H]2CCNC(=O)[C@H]([C@@H](C)O)NC(=O)[C@H](CCN)NC(=O)[C@H](CCN)NC(=O)[C@H](CC(C)C)NC(=O)[C@@H](CC(C)C)NC(=O)[C@H](CCN)NC2=O)[C@@H](C)O)NC(=O)[C@H](CCN)NC(=O)[C@H](Cc2ccc(O)cc2)NC(=O)[C@H](CN)NC1=O` [Ex. 83] (I: cyclo([Nle][Dap]Y[Dab]E[dDab][Dab]W[Dab][Tle]SS[dP]P) / II: [Dab]T[Dab][Dab][Dab][dL]L[Dab][Dab]T; amide I:5-II:N; lactam II:4-II:C), the “Klebsiella pneumoniae SSI #3010 MIC” value [1] is reported as 2 µg/mL, the “Acinetobacter baumannii DSM 30008 MIC” value [2] is reported as 1 µg/mL and the “Escherichia coli 926415 MIC” value (Escherichia coli 926415) is reported as 1 µg/mL. For the same molecule, the “Escherichia coli ATCC 25922 MIC” value [3] was 2 µg/mL, the “Acinetobacter baumannii 872842 MIC” value [4] was 1 µg/mL and the “Klebsiella pneumoniae 968733 MIC” value [5] was 4 µg/mL. For the same molecule, the “Pseudomonas aeruginosa ATCC 27853 MIC” value [6] was 1 µg/mL and the “Hemolysis at 100 μg/mL” value [7] was 1%.

For `CCCC[C@@H]1NC(=O)[C@@H]2CCCN2C(=O)[C@H]2CCCN2C(=O)[C@H](CO)NC(=O)[C@H](CN)NC(=O)[C@H](C(C)(C)C)NC(=O)[C@H](CCN)NC(=O)[C@H](Cc2c[nH]c3ccccc23)NC(=O)[C@H](CCN)NC(=O)[C@@H](CCN)NC(=O)[C@H](CCC(=O)N[C@@H](CCN)C(=O)N[C@H](C(=O)N[C@@H](CCN)C(=O)N[C@H]2CCNC(=O)[C@H]([C@@H](C)O)NC(=O)[C@H](CCN)NC(=O)[C@H](CCN)NC(=O)[C@H](CC(C)C)NC(=O)[C@@H](CC(C)C)NC(=O)[C@H](CCN)NC2=O)[C@@H](C)O)NC(=O)[C@H](CCN)NC(=O)[C@H](Cc2ccc(O)cc2)NC(=O)[C@H](CO)NC1=O` [Ex. 84] (I: cyclo([Nle]SY[Dab]E[dDab][Dab]W[Dab][Tle][Dap]S[dP]P) / II: [Dab]T[Dab][Dab][Dab][dL]L[Dab][Dab]T; amide I:5-II:N; lactam II:4-II:C), the “Klebsiella pneumoniae SSI #3010 MIC” value [1] was 2 µg/mL, the “Acinetobacter baumannii DSM 30008 MIC” value [2] was 1 µg/mL and the “Escherichia coli 926415 MIC” value (Escherichia coli 926415) was 1 µg/mL. The “Escherichia coli ATCC 25922 MIC” value [3] was 1 µg/mL, the “Acinetobacter baumannii 872842 MIC” value [4] was 2 µg/mL and the “Klebsiella pneumoniae 968733 MIC” value [5] was 2 µg/mL. For the same molecule, the “Pseudomonas aeruginosa ATCC 27853 MIC” value [6] was 2 µg/mL and the “Hemolysis at 100 μg/mL” value [7] was 1%.

With `CC(C)C[C@@H]1NC(=O)[C@@H](CC(C)C)NC(=O)[C@H](CCN)NC(=O)[C@@H](NC(=O)[C@H](CCN)NC(=O)[C@@H](NC(=O)[C@H](CCN)NC(=O)CC[C@@H]2NC(=O)[C@H](CCN)NC(=O)[C@H](Cc3ccc(O)cc3)NC(=O)[C@H](CN)NC(=O)[C@H](C(C)C)NC(=O)[C@@H]3CCCN3C(=O)[C@H]3CCCN3C(=O)[C@H](CO)NC(=O)[C@H](C)NC(=O)[C@H](C(C)C)NC(=O)[C@H](CCN)NC(=O)[C@H](Cc3c[nH]c4ccccc34)NC(=O)[C@H](CCN)NC(=O)[C@@H](CCN)NC2=O)[C@@H](C)O)CCNC(=O)[C@H]([C@@H](C)O)NC(=O)[C@H](CCN)NC(=O)[C@H](CCN)NC1=O` [Ex. 85] (I: cyclo(V[Dap]Y[Dab]E[dDab][Dab]W[Dab]VAS[dP]P) / II: [Dab]T[Dab][Dab][Dab][dL]L[Dab][Dab]T; amide I:5-II:N; lactam II:4-II:C) the “Klebsiella pneumoniae SSI #3010 MIC” value [1] was 2 µg/mL, the “Acinetobacter baumannii DSM 30008 MIC” value [2] was 1 µg/mL and the “Escherichia coli 926415 MIC” value (Escherichia coli 926415) was 2 µg/mL. For the same molecule, the “Escherichia coli ATCC 25922 MIC” value [3] was 1 µg/mL, the “Acinetobacter baumannii 872842 MIC” value [4] was 1 µg/mL and the “Klebsiella pneumoniae 968733 MIC” value [5] was 8 µg/mL. The “Pseudomonas aeruginosa ATCC 27853 MIC” value [6] was 1 µg/mL and the “Hemolysis at 100 μg/mL” value [7] was less than 1%.

With `CC(C)C[C@@H]1NC(=O)[C@@H](Cc2ccccc2)NC(=O)[C@H](CCN)NC(=O)[C@@H](NC(=O)[C@H](CCN)NC(=O)[C@@H](NC(=O)[C@H](CCN)NC(=O)CC[C@@H]2NC(=O)[C@H](CCN)NC(=O)[C@H](Cc3ccc(O)cc3)NC(=O)[C@@H]3CCNC(=O)C[C@H](NC(=O)[C@H](C(C)(C)C)NC(=O)[C@H](CCN)NC(=O)[C@H](Cc4c[nH]c5ccccc45)NC(=O)[C@H](CCN)NC(=O)[C@@H](CCN)NC2=O)C(=O)N[C@@H]([C@@H](C)O)C(=O)N2CC[C@@H]2C(=O)N2CCC[C@H]2C(=O)N[C@@H](C(C)C)C(=O)N3)[C@@H](C)O)CCNC(=O)[C@H]([C@@H](C)O)NC(=O)[C@H](CCN)NC(=O)[C@H](CCN)NC1=O` [Ex. 86] (I: cyclo(DT[dAze]PV[Dab]Y[Dab]E[dDab][Dab]W[Dab][Tle]) / II: [Dab]T[Dab][Dab][Dab][dF]L[Dab][Dab]T; lactam I:1-I:6, II:4-II:C; amide I:9-II:N) the “Klebsiella pneumoniae SSI #3010 MIC” value [1] was 0.25 µg/mL, the “Acinetobacter baumannii DSM 30008 MIC” value [2] was 1 µg/mL and the “Escherichia coli 926415 MIC” value (Escherichia coli 926415) was 0.25 µg/mL. The “Escherichia coli ATCC 25922 MIC” value [3] was 0.25 µg/mL, the “Acinetobacter baumannii 872842 MIC” value [4] was 0.5 µg/mL and the “Klebsiella pneumoniae 968733 MIC” value [5] was 0.5 µg/mL. The “Pseudomonas aeruginosa ATCC 27853 MIC” value [6] was 0.5 µg/mL and the “Hemolysis at 100 μg/mL” value [7] was 1%.
